# Read-outs that look alike come from different tables or passages of the source.
# Columns and labels:
# Test in all cases: In vitro antibacterial spectrum, agar plate dilution (MIC)
# Type in all cases: cell-based
# Citrobacter diversus = details: Citrobacter koseri; Citrobacter diversus K 82-24; Mueller-Hinton agar, 10^4 CFU, 18 h, 35° C
# Procedure: (§1) The in vitro antimicrobial spectrum of the compounds of the invention were determined by the agar plate dilution method with Mueller-Hinton agar and an inoculum of each test organism of approximately 10^4 colony forming units delivered by the Steers replicating device. The minimal inhibitory concentration (MIC) in mcg/ml is defined as the lowest concentration of test compound that inhibited visible growth after 18 hours incubation at 35° C.
# Enterobacter cloacae = details: 18 h, 10^4 CFU, 35° C
# Procedure: as §1
# Escherichia coli = details: 10^4 CFU, 35° C
# Procedure: as §1
# Klebsiella nneumoniae = details: Mueller-Hinton agar, 10^4 CFU, 18 h, 35° C
# Procedure: as §1
# Morganella morganii = details: 18 h, 10^4 CFU, 35° C
# Procedure: as §1
# Proteus rettgeri = details: Providencia rettgeri; Proteus rettgeri IO 83-21; Mueller-Hinton agar, 10^4 CFU, 18 h, 35° C
# Procedure: as §1
# Providencia stuartii = Providencia stuartii CMC 83-3; Mueller-Hinton agar, 10^4 CFU, 18 h, 35° C
# Procedure: as §1
# Pseudomonas aeruginosa = details: Mueller-Hinton agar, 10^4 CFU, 18 h, 35° C
# Procedure: as §1
# Serratia marcescens = details: 18 h, 10^4 CFU, 35° C
# Procedure: as §1
# Staphylococcus aureus = details: Mueller-Hinton agar, 10^4 CFU, 18 h, 35° C
# Procedure: as §1
# Streptococcus faecalis = details: Mueller-Hinton agar, 10^4 CFU, 18 h, 35° C
# Procedure: as §1
structure (smiles),measurement,setting,value
"CN1CCN(c2cc3c(cc2F)c(=O)c(C(=O)O)c2ccccn23)CC1 [Example 6, 8-Fluoro-9-(4-methyl-1-piperazinyl)-6-oxo-6H-benzo[c]quinolizine-5-carboxylic acid]",MIC,Citrobacter diversus,4 µg/mL
same,MIC,"Enterobacter cloacae; Enterobacter cloacae K 84-10, Mueller-Hinton agar",2 µg/mL
same,MIC,"Enterobacter cloacae; Enterobacter cloacae MOR 84-30, Mueller-Hinton agar",16 µg/mL
same,MIC,"Enterobacter cloacae; Enterobacter cloacae VGH 84-39, Mueller-Hinton agar",2 µg/mL
same,MIC,"Escherichia coli; 18 h, Escherichia coli CMC 84-50, Mueller-Hinton agar",2 µg/mL
same,MIC,"Escherichia coli; 18 h, Escherichia coli D 21, Mueller-Hinton agar",4 µg/mL
same,MIC,"Escherichia coli; 18 h, Escherichia coli D 22, Mueller-Hinton agar",2 µg/mL
same,MIC,"Escherichia coli; 18 h, Escherichia coli MOR 84-20, Mueller-Hinton agar",2 µg/mL
same,MIC,"Escherichia coli; 18 h, Escherichia coli VGH 84-19, Mueller-Hinton agar",4 µg/mL
same,MIC,"Escherichia coli; ATCC25922, 18 h, Escherichia coli ATCC 25922, Mueller-Hinton agar",4 µg/mL
same,MIC,Klebsiella nneumoniae; Klebsiella nneumoniae IO 83-5,8 µg/mL
same,MIC,"Klebsiella nneumoniae; Klebsiella nneumoniae MOR 84-24, read-out: MIC",8 µg/mL
same,MIC,Klebsiella nneumoniae; Klebsiella oneumoniae CMC 84-31,8 µg/mL
same,MIC,"Morganella morganii; Morganella morganii CMC 84-38, Mueller-Hinton agar",0.5 µg/mL
same,MIC,"Morganella morganii; Morganella morganii VGH 84-12, Mueller-Hinton agar",4 µg/mL
same,MIC,"Morganella morganii; Moroanella morganii MOR 84-45, Mueller-Hinton agar",0.5 µg/mL
same,MIC,Proteus rettgeri,1 µg/mL
same,MIC,Providencia stuartii,> 16 µg/mL
same,MIC,Pseudomonas aeruginosa; Pseudomonas aeruginosa CMC 83-20,> 16 µg/mL
same,MIC,"Pseudomonas aeruginosa; Pseudomonas aeruginosa K 84-16, read-out: MIC",> 16 µg/mL
same,MIC,Pseudomonas aeruginosa; Pseudomonas aeruginosa VGH 84-3,> 16 µg/mL
same,MIC,"Serratia marcescens; Serratia marcescens CMC 83-74, Mueller-Hinton agar",> 16 µg/mL
same,MIC,"Serratia marcescens; Serratia marcescens IO 83-63, Mueller-Hinton agar",4 µg/mL
same,MIC,"Serratia marcescens; Serratia marcescens MOR 84-41, Mueller-Hinton agar",2 µg/mL
same,MIC,"Staphylococcus aureus; ATCC25913, Staphylococcus aureus ATCC 25913, read-out: MIC",> 16 µg/mL
same,MIC,Staphylococcus aureus; Staphylococcus aureus CMC 83-131,> 16 µg/mL
same,MIC,Staphylococcus aureus; Staphylococcus aureus K 82-26,> 16 µg/mL
same,MIC,"Staphylococcus aureus; Staphylococcus aureus VGH 84-47, read-out: MIC",> 16 µg/mL
same,MIC,"Streptococcus faecalis; Enterococcus faecalis, Streptococcus faecalis VCI 85-30, read-out: MIC",> 16 µg/mL
same,MIC,Streptococcus faecalis; Streptococcus faecalis CMC 83-120,> 16 µg/mL
same,MIC,Streptococcus faecalis; Streptococcus faecalis VGH 84-69,> 16 µg/mL

# — patent publication US4923868A, “8-fluoro and 7,8,10-trifluoro-9-(substituted)-6-oxo-6H-benzo(C)quinolizine-5-carboxyl ic acids” (American Cyanamid Company, priority 1989, dated 1990)
